Test results as given in patent US20230295197A1, “STAT5 and STAT6 Degraders and Uses Thereof” (REGENTS OF THE UNIVERSITY OF MICHICAN, priority 2022, published 2023).
Where two headings read alike, the source gives them in different places. *1 amine or outer side, *2 acyl side, *3 side chain or, on linkers, in order; H or OH if unused. Where a SMILES comes first, the peptide text is derived from it. [ ]: non-standard residue; d: D form. The star is where a group is joined. Benzothienyl2CO(5-CF2PO3H2) = O=C(c1cc2cc(C(F)(F)P(=O)(O)O)ccc2s1)*; βAla(N-(4-Br-phenyl)) = O=C(CCN(c1ccc(Br)cc1)[*:1])[*:2]; NHBn(4-(4-Me-thiazol-5-yl)) = Cc1ncsc1-c1ccc(CN*)cc1; Hyp = O=C(O)[C@@H]1C[C@@H](O)CN1; Tle = CC(C)(C)[C@H](N)C(=O)O; Aoc = NCCCCCCCC(=O)O; Ava = NCCCCC(=O)O

Target: T1, STAT6 (Homo sapiens, UniProt P42226)
T1 construct: endogenous in cells; host or cells: MOLM-16, KU-812, SKNO1, MB231, L1236
T1 sequence (P42226 1-847): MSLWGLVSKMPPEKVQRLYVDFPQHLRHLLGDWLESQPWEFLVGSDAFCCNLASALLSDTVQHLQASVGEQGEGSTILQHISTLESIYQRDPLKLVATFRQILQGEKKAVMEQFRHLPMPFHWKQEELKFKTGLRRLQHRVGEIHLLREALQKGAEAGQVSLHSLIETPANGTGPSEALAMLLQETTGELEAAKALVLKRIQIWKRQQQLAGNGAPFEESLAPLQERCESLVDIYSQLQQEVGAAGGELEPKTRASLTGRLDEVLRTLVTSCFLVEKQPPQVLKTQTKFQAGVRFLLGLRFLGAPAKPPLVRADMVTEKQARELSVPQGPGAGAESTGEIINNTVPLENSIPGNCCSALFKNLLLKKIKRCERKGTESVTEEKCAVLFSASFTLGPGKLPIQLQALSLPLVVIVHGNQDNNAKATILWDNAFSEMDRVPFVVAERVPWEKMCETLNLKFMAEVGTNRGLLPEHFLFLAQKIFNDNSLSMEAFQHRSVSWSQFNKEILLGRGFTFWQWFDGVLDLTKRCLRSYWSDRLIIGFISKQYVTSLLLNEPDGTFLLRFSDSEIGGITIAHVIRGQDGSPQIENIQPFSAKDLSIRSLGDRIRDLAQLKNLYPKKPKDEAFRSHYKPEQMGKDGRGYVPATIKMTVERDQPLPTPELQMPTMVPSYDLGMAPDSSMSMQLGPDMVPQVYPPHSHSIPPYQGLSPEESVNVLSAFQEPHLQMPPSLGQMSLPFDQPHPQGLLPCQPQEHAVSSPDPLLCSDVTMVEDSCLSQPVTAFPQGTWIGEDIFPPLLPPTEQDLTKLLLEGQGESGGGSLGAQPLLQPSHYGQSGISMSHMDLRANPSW
Assay: Immunoblotting (Western blot) analysis of STAT6 degradation efficiency of degraders in treated cells
Assay type: cell-based
In short: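 Degradation read by quantitative near-infrared Western blot: equal protein loads (20-40 μg) from compound-treated versus untreated cells, probed overnight at 4° C. for STAT5 or STAT6 with GAPDH reference. Compound concentrations and exposure times as indicated; cells grown in medium with 10% FBS at 37° C.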

[1] = L1236 cells, read-out: DC50 S6 L1236
[2] = MOLM-16 cells, class symbols, read-out: DC50 S6 MOLM-16
[3] = read-out: DC50 S6 MB231, MB231 cells

Structure (SMILES) | DC50 [2] [µM] | further results
CC(C)(C)[C@H](NC(=O)c1cc2cc(C(F)(F)P(=O)(O)O)ccc2s1)C(=O)N1C[C@H](OCCCCCC#Cc2cccc3c2CN(C2CCC(=O)NC2=O)C3=O)C[C@H]1C(=O)N1CCO[C@H](c2ccccc2)C1 (stereo partly drawn) [Compound 600, ((2-(((2S)-1-((2S,4R)-4-((7-(2-(2,6-dioxopiperidin-3-yl)-1-oxoisoindolin-4-yl)hept-6-yn-1-yl)oxy)-2-((R)-2-phenylmorpholine-4-carbonyl)pyrrolidin-1-yl)-3,3-dimethyl-1-oxobutan-2-yl)carbamoyl)benzo[b]thiophen-5-yl)difluoromethyl)phosphonic acid] | – | DC50 (MOLM-16 cells, numeric bound, read-out: DC50 S6 MOLM-16): > 0.3 µM
Cc1ncsc1-c1ccc([C@H](C)NC(=O)[C@@H]2C[C@@H](O)CN2C(=O)[C@@H](NC(=O)CCCCNC(=O)CC(=O)N2CCN(C(=O)[C@@H](NC(=O)c3cc4cc(C(F)(F)P(=O)(O)O)ccc4s3)C(C)(C)C)[C@H](C(=O)N3CCO[C@H](c4ccccc4)C3)C2)C(C)(C)C)cc1 [Compound 446, (difluoro(2-(((S)-1-((S)-4-(3-((5-(((S)-1-((2S,4R)-4-hydroxy-2-(((S)-1-(4-(4-methylthiazol-5-yl)phenyl)ethyl)carbamoyl)pyrrolidin-1-yl)-3,3-dimethyl-1-oxobutan-2-yl)amino)-5-oxopentyl)amino)-3-oxopropanoyl)-2-((R)-2-phenylmorpholine-4-carbonyl)piperazin-1-yl)-3,3-dimethyl-1-oxobutan-2-yl)carbamoyl)benzo[b]thiophen-5-yl)methyl)phosphonic acid] | > 10 | DC50 [1]: > 10 µM
CC(C)(C)[C@H](NC(=O)c1cc2cc(C(F)(F)P(=O)(O)O)ccc2s1)C(=O)N1Cc2cc(OCC(=O)NCC#Cc3cccc4c3C(=O)N(C3CCC(=O)NC3=O)C4=O)ccc2C[C@H]1C(=O)N1CCO[C@H](c2ccccc2)C1 (stereo partly drawn) [Compound 535, ((2-(((2S)-1-((3S)-7-(2-((3-(2-(2,6-dioxopiperidin-3-yl)-1,3-dioxoisoindolin-4-yl)prop-2-yn-1-yl)amino)-2-oxoethoxy)-3-((R)-2-phenylmorpholine-4-carbonyl)-3,4-dihydroisoquinolin-2(1H)-yl)-3,3-dimethyl-1-oxobutan-2-yl)carbamoyl)benzo[b]thiophen-5-yl)difluoromethyl)phosphonic acid] | 0.1 to 1 | –
CC(C)(C)[C@H](NC(=O)c1cc2cc(C(F)(F)P(=O)(O)O)ccc2s1)C(=O)N1CCN(C(=O)CC(=O)NCCCCC#Cc2ccc3c(c2)C(=O)N(C2CCC(=O)NC2=O)C3=O)C[C@H]1C(=O)N1CCO[C@H](c2ccccc2)C1 (stereo partly drawn) [Compound 514, ((2-(((2S)-1-((2S)-4-(3-((6-(2-(2,6-dioxopiperidin-3-yl)-1,3-dioxoisoindolin-5-yl)hex-5-yn-1-yl)amino)-3-oxopropanoyl)-2-((R)-2-phenylmorpholine-4-carbonyl)piperazin-1-yl)-3,3-dimethyl-1-oxobutan-2-yl)carbamoyl)benzo[b]thiophen-5-yl)difluoromethyl)phosphonic acid] | > 10 | –
CC(C)(C)[C@H](NC(=O)c1cc2cc(C(F)(F)P(=O)(O)O)ccc2s1)C(=O)N1C[C@@H](OCCCCCCC#Cc2cccc3c2CN(C2CCC(=O)NC2=O)C3=O)C[C@H]1C(=O)N1CCO[C@H](c2ccccc2)C1 (stereo partly drawn) [Compound 587, ((2-(((2S)-1-((2S,4S)-4-((8-(2-(2,6-dioxopiperidin-3-yl)-1-oxoisoindolin-4-yl)oct-7-yn-1-yl)oxy)-2-((R)-2-phenylmorpholine-4-carbonyl)pyrrolidin-1-yl)-3,3-dimethyl-1-oxobutan-2-yl)carbamoyl)benzo[b]thiophen-5-yl)difluoromethyl)phosphonic acid] | < 0.1 | DC50 [1]: 0.1 to 1 µM
CC(C)(C)[C@H](NC(=O)c1cc2cc(C(F)(F)P(=O)(O)O)ccc2s1)C(=O)N1CCN(C(=O)CC(=O)NCC#Cc2ccc3c(c2)C(=O)N(C2CCC(=O)NC2=O)C3=O)C[C@H]1C(=O)N1CCO[C@H](c2ccccc2)C1 (stereo partly drawn) [Compound 508, ((2-(((2S)-1-((2S)-4-(3-((3-(2-(2,6-dioxopiperidin-3-yl)-1,3-dioxoisoindolin-5-yl)prop-2-yn-1-yl)amino)-3-oxopropanoyl)-2-((R)-2-phenylmorpholine-4-carbonyl)piperazin-1-yl)-3,3-dimethyl-1-oxobutan-2-yl)carbamoyl)benzo[b]thiophen-5-yl)difluoromethyl)phosphonic acid] | > 10 | –
Cc1ncsc1-c1ccc(CNC(=O)[C@@H]2C[C@@H](O)CN2C(=O)[C@@H](NC(=O)CCCCNC(=O)CCN(C(=O)[C@@H]2CCCN2C(=O)[C@@H](NC(=O)c2cc3cc(C(F)(F)P(=O)(O)O)ccc3s2)C(C)(C)C)c2ccc(Br)cc2)C(C)(C)C)cc1 [Compound 401] ({Benzothienyl2CO(5-CF2PO3H2)}-[Tle]P[βAla(N-(4-Br-phenyl))][Ava][Tle][Hyp]-{NHBn(4-(4-Me-thiazol-5-yl))}) | – | DC50 [3]: > 10 µM
Cc1ncsc1-c1ccc(CNC(=O)[C@@H]2C[C@@H](O)CN2C(=O)[C@@H](NC(=O)CCCCCCCNC(=O)CCN(C(=O)[C@@H]2CCCN2C(=O)[C@@H](NC(=O)c2cc3cc(C(F)(F)P(=O)(O)O)ccc3s2)C(C)(C)C)c2ccc(Br)cc2)C(C)(C)C)cc1 [Compound 398] ({Benzothienyl2CO(5-CF2PO3H2)}-[Tle]P[βAla(N-(4-Br-phenyl))][Aoc][Tle][Hyp]-{NHBn(4-(4-Me-thiazol-5-yl))}) | – | DC50 [3]: > 10 µM
CC(C)(C)[C@H](NC(=O)c1cc2cc(C(F)(F)P(=O)(O)O)ccc2s1)C(=O)N1Cc2cc(OCC(=O)NCCCCC#Cc3cccc4c3C(=O)N(C3CCC(=O)NC3=O)C4=O)ccc2C[C@H]1C(=O)N1CCC[C@H](c2ccccc2)C1 (stereo partly drawn) [Compound 555, ((2-(((2S)-1-((3S)-7-(2-((6-(2-(2,6-dioxopiperidin-3-yl)-1,3-dioxoisoindolin-4-yl)hex-5-yn-1-yl)amino)-2-oxoethoxy)-3-((R)-3-phenylpiperidine-1-carbonyl)-3,4-dihydroisoquinolin-2(1H)-yl)-3,3-dimethyl-1-oxobutan-2-yl)carbamoyl)benzo[b]thiophen-5-yl)difluoromethyl)phosphonic acid] | > 10 | –
Cc1cc([C@H](C(=O)N2C[C@H](O)C[C@H]2C(=O)N[C@@H](CC(=O)NCCCCCCNC(=O)CO[C@@H]2C[C@@H](C(=O)N(C)c3ccc(Br)cc3)N(C(=O)[C@@H](NC(=O)c3cc4cc(C(F)(F)P(=O)(O)O)ccc4s3)C(C)(C)C)C2)c2ccc(-c3scnc3C)cc2)C(C)C)on1 [Compound 422, ((2-(((S)-1-((2S,4R)-2-((4-bromophenyl)(methyl)carbamoyl)-4-(2-((6-((S)-3-((2S,4R)-4-hydroxy-1-((R)-3-methyl-2-(3-methylisoxazol-5-yl)butanoyl)pyrrolidine-2-carboxamido)-3-(4-(4-methylthiazol-5-yl)phenyl)propanamido)hexyl)amino)-2-oxoethoxy)pyrrolidin-1-yl)-3,3-dimethyl-1-oxobutan-2-yl)carbamoyl)benzo[b]thiophen-5-yl)difluoromethyl)phosphonic acid] | > 10 | –
CC(C)(C)[C@H](NC(=O)c1cc2cc(C(F)(F)P(=O)(O)O)ccc2s1)C(=O)N1C[C@@H](NC(=O)CCCCCC#Cc2cccc3c2CN(C2CCC(=O)NC2=O)C3=O)C[C@H]1C(=O)N1CCO[C@H](c2ccccc2)C1 (stereo partly drawn) [Compound 565, ((2-(((2S)-1-((2S,4S)-4-(8-(2-(2,6-dioxopiperidin-3-yl)-1-oxoisoindolin-4-yl)oct-7-ynamido)-2-((R)-2-phenylmorpholine-4-carbonyl)pyrrolidin-1-yl)-3,3-dimethyl-1-oxobutan-2-yl)carbamoyl)benzo[b]thiophen-5-yl)difluoromethyl)phosphonic acid] | > 10 | DC50 [1]: > 10 µM
